How the values were obtained:
[1] = tested on: IMC-1 (IL-2 20 ng/mL); test: percent inhibition of viability; higher = more inhibition; settings: 72 h
[2] = tested on: NK-YS (IL-2 2.5 ng/mL); test: as above; settings: 72 h
[3] = tested on: DERL-7 (IL-2 2.5 ng/mL); test: as above; settings: 72 h
[4] = tested on: KHYG-1 (IL-2 2.5 ng/mL); test: as above; settings: 72 h
[5] = tested on: normal primary NK cells, pool 1 (3 donors) (IL-2 2.5 ng/mL); test: as above; settings: 72 h
[6] = tested on: normal primary NK cells, pool 1 (3 donors), resting (IL-2 0 ng/mL); test: as above; settings: 72 h
[7] = tested on: YT (IL-2 2.5 ng/mL); test: as above; settings: 72 h
[8] = tested on: KAI3 (IL-2 2.5 ng/mL); test: as above; settings: 72 h
[9] = tested on: normal primary NK cells, pool 2 (3 donors) (IL-2 2.5 ng/mL); test: as above; settings: 72 h
[10] = tested on: NKL (IL-2 2.5 ng/mL); test: as above; settings: 72 h
[11] = tested on: normal primary NK cells, pool 3 (3 donors) (IL-2 2.5 ng/mL); test: as above; settings: 72 h
[12] = tested on: SNK-6 (IL-2 2.5 ng/mL); test: as above; settings: 72 h
[13] = tested on: NK-92 (IL-2 2.5 ng/mL); test: as above; settings: 72 h
[14] = tested on: IMC-1 (IL-2 20 ng/mL); test: drug sensitivity score (DSS) (DSS units); higher = more sensitive; extreme values may be limits of the assay; settings: 72 h
[15] = tested on: NK-YS (IL-2 2.5 ng/mL); test: as above; settings: 72 h
[16] = tested on: DERL-7 (IL-2 2.5 ng/mL); test: as above; settings: 72 h
[17] = tested on: KHYG-1 (IL-2 2.5 ng/mL); test: as above; settings: 72 h
[18] = tested on: normal primary NK cells, pool 1 (3 donors) (IL-2 2.5 ng/mL); test: as above; settings: 72 h
[19] = tested on: normal primary NK cells, pool 1 (3 donors), resting (IL-2 0 ng/mL); test: as above; settings: 72 h
[20] = tested on: YT (IL-2 2.5 ng/mL); test: as above; settings: 72 h
[21] = tested on: KAI3 (IL-2 2.5 ng/mL); test: as above; settings: 72 h
[22] = tested on: normal primary NK cells, pool 2 (3 donors) (IL-2 2.5 ng/mL); test: as above; settings: 72 h
[23] = tested on: NKL (IL-2 2.5 ng/mL); test: as above; settings: 72 h
[24] = tested on: normal primary NK cells, pool 3 (3 donors) (IL-2 2.5 ng/mL); test: as above; settings: 72 h
[25] = tested on: SNK-6 (IL-2 2.5 ng/mL); test: as above; settings: 72 h
[26] = tested on: NK-92 (IL-2 2.5 ng/mL); test: as above; settings: 72 h
[27] = tested on: normal NK cells expanded with K562-aAPC; test: percent inhibition of viability; higher = more inhibition; settings: 72 h, IL-2 2.5 ng/mL
Description: (§1)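 Drug sensitivity and resistance testing on K562-aAPC-expanded normal NK cells: 5 concentrations (10-fold steps over a 10,000-fold range), 72 h at 37 °C, viability by CellTiter-Glo normalised to DMSO and benzethonium chloride controls; DSS from the fitted curve.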

[28] = tested on: normal NK cells expanded with K562-aAPC; test: drug sensitivity score (DSS) (DSS units); higher = more sensitive; extreme values may be limits of the assay; settings: 72 h; IL-2 2.5 ng/mL
Description: as §1

COc1cc(OC)c(/C=C/S(=O)(=O)Cc2ccc(OC)c(NCC(=O)O)c2)c(OC)c1 [Rigosertib] (max concentration tested 10000 nM)
percent inhibition of viability [%]
Settings | 1 nM | 10 nM | 100 nM | 1000 nM | 10000 nM
[1] | -6.34 | -1.76 | 93.8 | 99.2 | 97.8
[2] | -0.07 | 0.08 | 70.9 | 76.8 | 77.4
[3] | -3.53 | 3.03 | 91 | 98 | 97.8
[4] | -1.12 | -2.53 | 96.6 | 102 | 97.6
[5] | -11.3 | -13.9 | -2.02 | 15.3 | 45.3
[6] | -8.83 | -4.84 | 6.87 | 37.8 | 69.8
[7] | -2.58 | 3.15 | 82.9 | 98.4 | 95.7
[8] | -3.07 | 5.22 | 55 | 71.9 | 67.5
[9] | -8.68 | -8.95 | -9.12 | 13.6 | 37.4
[10] | -16.2 | -17.7 | 87.4 | 92.2 | 85.4
[11] | -13.6 | -15.7 | -12.6 | -0.93 | 21.3
[12] | -14.2 | 3 | 76.5 | 95.2 | 97.2
[13] | -6.11 | 2.36 | 77.7 | 97.1 | 94.3
[27] | -1.17 | -9.48 | -1.76 | 57.7 | 82.7

Settings | drug sensitivity score
[14] | 29.3
[15] | 23
[16] | 29.1
[17] | 29.8
[18] | 4.54
[19] | 8.37
[20] | 27.8
[21] | 20.3
[22] | 3.7
[23] | 26.7
[24] | 0.62
[25] | 26.8
[26] | 26.8
[28] | 11.3

Cc1ccc(-n2nc(C(C)(C)C)cc2NC(=O)Nc2ccc(OCCN3CCOCC3)c3ccccc23)cc1 [Doramapimod] (max concentration tested 10000 nM)
percent inhibition of viability [%]
Settings | 1 nM | 10 nM | 100 nM | 1000 nM | 10000 nM
[1] | -7.13 | -0.74 | 1.31 | 8.39 | 27.3
[2] | -8.49 | 3.68 | 5.33 | 24.4 | 63.3
[3] | -1.24 | 0.45 | -6.35 | 0.4 | 31.3
[4] | -0.62 | 4.98 | 0.58 | 7.1 | 56.5
[5] | 2.74 | -0.9 | -0.42 | -10.6 | 91.3
[6] | 0.09 | -4.02 | -3.55 | 3.17 | 94.7
[7] | 1.11 | 9.26 | 7.83 | 16.7 | 45
[8] | -7.62 | 9.59 | 18.9 | 43.5 | 68
[9] | -9.43 | -4.09 | 6.14 | -0.89 | 85.1
[10] | -7.33 | -0.1 | 12 | 80.7 | 98.6
[11] | -11.6 | -1.56 | 4.57 | 2.15 | 85.2
[12] | -8.06 | 6.04 | -5.96 | -39.3 | 6.22
[13] | 13 | 11 | 8.99 | 11.7 | 71.5
[27] | -6.83 | -0.74 | -1.74 | 16.5 | 52.8

Settings | drug sensitivity score
[14] | 2.23
[15] | 6.27
[16] | 1.44
[17] | 4.24
[18] | 4.39
[19] | 5.69
[20] | 3.98
[21] | 10.7
[22] | 4.66
[23] | 16.4
[24] | 5.02
[25] | 0
[26] | 5.9
[28] | 5.25

Reference: the supplement of paper PMC5908809
